Results published in US4992417A (Mount Sinai School of Medicine, priority 1988, dated 1991).
Values belong to the substance of their own block, whether it stands above or below them.

Key:
insulin receptor = insulin receptor (Homo sapiens, UniProt P06213); conditions: cited from earlier work; for potency compared with natural insulin: literature
rat adipocytes = assay: Lipogenesis assay (conversion of [3-3H] glucose into lipids); format: cell-based; conditions: isolated rat adipocytes
Procedure: Adipocytes were prepared by incubating epididymal and perirenal fat pads obtained from male rats weighing 200-300 g with 1.0 mg/ml collagenase for 60 min at 37° C., followed by filtration through gauze and then through fine-mesh silk. Cells were washed twice by flotation in a clinical centrifuge before suspension for use. The incubation medium was Krebs-Ringer bicarbonate containing half the recommended calcium, 0.5 mM glucose, and 3% fatty acid free bovine serum albumin, with 95% O2 -5% CO2 as the gas phase. […] Cells were preincubated for 45 min at 37° C. before the addition of [3-^3 H] glucose. Incubation was continued for 60 min and stopped by the addition of 0.2 ml of 5N H2 SO4 and 0.2 ml of corn oil to aid in the extraction of lipids. Samples were extracted with 10 ml of Soluscint-0® for 30 min at room temperature before counting the radioactivity in a scintillation counter. Under these conditions, [3-^3 H] glucose was not extracted into the organic phase containing the scintillation fluors and was essentially uncounted.
Stimulation, expressed as per cent of maximum, was plotted as a function of the agonist concentration. The data points represent the mean of triplicate determinations in representative assays performed four times. […]
Stimulation, expressed as per cent of maximum, was plotted as a function of the agonist concentration. […]

[1] = molecular target: T1, insulin receptors in rat liver plasma membranes (Rattus norvegicus, UniProt P15127); assay: Insulin receptor binding assay (competition with 125I-insulin)
T1 construct: Rat liver plasma membranes were prepared as described by Horvat et al; from tissue; host or cells: rat liver plasma membranes
T1 sequence (P15127 27-759 limits assumed): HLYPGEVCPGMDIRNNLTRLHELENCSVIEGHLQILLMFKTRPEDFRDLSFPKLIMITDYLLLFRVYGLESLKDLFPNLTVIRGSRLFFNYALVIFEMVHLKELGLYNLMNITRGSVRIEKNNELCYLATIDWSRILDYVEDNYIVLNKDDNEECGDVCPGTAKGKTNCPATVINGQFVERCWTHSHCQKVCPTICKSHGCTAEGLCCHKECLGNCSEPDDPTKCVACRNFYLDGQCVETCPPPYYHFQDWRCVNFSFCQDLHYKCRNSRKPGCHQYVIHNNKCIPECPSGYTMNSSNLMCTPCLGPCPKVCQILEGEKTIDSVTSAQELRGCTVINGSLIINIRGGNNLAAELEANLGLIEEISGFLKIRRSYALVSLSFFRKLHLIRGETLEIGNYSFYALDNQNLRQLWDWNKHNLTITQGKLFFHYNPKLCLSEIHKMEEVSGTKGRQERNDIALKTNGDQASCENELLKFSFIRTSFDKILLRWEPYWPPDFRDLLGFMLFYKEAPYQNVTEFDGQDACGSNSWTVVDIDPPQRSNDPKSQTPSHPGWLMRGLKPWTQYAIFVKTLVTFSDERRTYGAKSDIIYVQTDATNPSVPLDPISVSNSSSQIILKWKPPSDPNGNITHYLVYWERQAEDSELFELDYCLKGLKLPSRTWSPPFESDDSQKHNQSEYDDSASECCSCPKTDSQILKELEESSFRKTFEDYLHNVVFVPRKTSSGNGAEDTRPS
Procedure: Following incubation for 45 min at 24° C., the mixtures were diluted with 2.0 ml of ice cold 0.1M sodium phosphate, pH 7.4, containing 0.1% fraction V bovine serum albumin and immediately filtered through cellulose-acetate filters. The filters were washed twice with the ice cold buffer, dried, and then radioactivity was counted in a scintillation counter using Filtron-X®.
Inhibition of binding, expressed as per cent of maximum, was plotted as a function of competitor concentration. […] The maximum binding in these assays amounted to 8.2% of the input radioactivity.
Inhibition of binding, expressed as per cent of maximum, was plotted as a function of competitor concentration.

[2] = system: Guinea pig antiserum to porcine insulin; assay: Insulin radioimmunoassay; format: binding; conditions: competition with 125I-insulin for anti-insulin antiserum; ratio of slopes
Procedure: After incubation at room temperature overnight, 0.2 ml of the precipitating antibody (goat anti-guinea pig-γ globulin) was added, and the tubes were further incubated overnight at room temperature. Immune precipitates were collected on cellulose-acetate filters and washed with two successive 1.0 mL portions of ice-cold assay buffer. Filters were dried and radioactivity was counted in a scintillation counter in Filtron-X®.

Substance: [Asn^B10 ]- insulin
potency compared with natural insulin (insulin receptor): reduced potency

Substance: [Lys^B10 ] insulin
potency compared with natural insulin (insulin receptor): reduced potency

Substance: [Leu^B10 ]- insulin
potency compared with natural insulin (insulin receptor): reduced potency

Substance: des-pentapeptide(B26-B30)-[Tyr^B25 -α-carboxamide]insulin
potency greater than insulin (insulin receptor; literature (Nakagawa et al.; Casareto et al.)): 270-300%

potency relative to bovine insulin (concentration ratio required to inhibit 50% of the specific binding of 125I-insulin) ([1]; rat liver plasma membranes, 45 min at 24° C., pH 7.4, assay performed four times): about 534±146%
binding to the insulin receptor, times more tightly than natural insulins ([1]; relative to natural insulins): about five times more tightly
Substance: [10-Aspartic acid-B] human insulin
maximum stimulation of lipogenesis compared with bovine insulin (rat adipocytes): full agonist
relative potency (concentration ratio required to produce 50% of the maximum stimulation of lipogenesis) relative to bovine insulin (rat adipocytes; [3-3H] glucose, 60 min, assays performed four times): 435±144%
potency in radioimmunoassay relative to bovine insulin [2]: approximately equal potency

Substance: des-pentapeptide(B26-B30)-[Phe^B25 -α-carboxamide]insulin
potency compared with natural insulin (insulin receptor): comparable potency
